# ChEMBL document CHEMBL4431316, “New 6-Aminoquinoxaline Derivatives with Neuroprotective Effect on Dopaminergic Neurons in Cellular and Animal Parkinson Disease Models” (J Med Chem, 2016)
# Activity calls are given as the source filed them. The rule behind the calls is not given here.
# Organism: Rattus norvegicus
# Test: Neuroprotective activity in Sprague-Dawley rat DA neuron death PD model assessed as inhibition of calcium mobilization at 50 uM after 10 days in presence of N-type voltage gated calcium channel blocker omega-conotoxin M7A
# Type: functional
smiles,measurement,value
Nc1ccc2ncc(-c3ccccc3)nc2c1,inhibition,Active
